Columns and labels:
[1] = molecular target: T1, Hsp70i, Hsc70, Grp78, Grp75, Hsp90 (Homo sapiens, UniProt P0DMV8); experiment: Elution of HEK 293T cell lysate proteins from the ATP resin (silver stain, Western blot); type: binding; conditions: few non-specific eluted proteins
T1 construct: endogenous in cells; host or cells: HEK 293T
Experimental: (§1) FLECS Screen: A pEGFP-tagged Hsp70i was (plasmid 15215, Addgene, Cambridge, Mass.) used in the FLECS assay and was originally cloned according to [Zeng et al. (2004). Hsp70 dynamics in vivo: effect of heat shock and protein aggregation. Journal of cell science 117, 4991-5000]. ATP used in the assay was purchased from Sigma (St. Louis, Mo.) and a 200 mM stock was prepared with low salt buffer (150 mM NaCl, 25 mM Tris, pH 7.5, 60 mM MgCl2). The γ-phosphate ATP sepharose was synthesized as previously described and stored in low salt buffer [Haystead et al. (1993). Gamma-phosphate-linked ATP-sepharose for the affinity purification of protein kinases. Rapid purification to homogeneity of skeletal muscle mitogen-activated protein kinase kinase. European journal of biochemistry/FEBS 214, 459-467]. FuGENE 6 transfection reagent (Roche, Mannheim, Germany) was used for transfection of GFP-Hsp70i into HEK 293T cells, following the manufacturer protocol. The transfection ensued for 48 hours, upon which time the cells were harvested and lysed in cell lysis buffer (150 mM NaCl, 50 mM Tris, pH 7.5, 1% Triton X-100, 1 mM EDTA, 1 mM DTT, and 1 tablet Complete Mini protease inhibitor (Roche)). Cell lysates were stored at −80° C. until further use. Upon binding the resin lysates were washed 3× with high stringency wash buffer (1 M NaCl, 25 mM Tris, pH 7.5, 60 mM MgCl2, 1 mM DTT) and 3× with low stringency wash buffer (150 mM NaCl, 25 mM Tris, pH 7.5, 60 mM MgCl2, 1 mM DTT). Next the lysates were transferred to 0.2 μm PVDF filter 96-well plate (Corning, Corning, N.Y.) sitting on top of a black flat-bottomed 96-well catch plate (Corning). […]
(§2) HS-72 specifically targets Hsp70i over other members of the Hsp70 superfamily. […] To more thoroughly determine the specificity of HS-72 for Hsp70i, the HEK 293T eluates were also analyzed for other Hsp70 family members Hsc70, Grp78, and Grp75, as well as Hsp90 by Western blot. […] The linker on the resin was cleaved using sodium dithionite and the samples were subjected to SDS-PAGE and analyzed by Western blot, silver stain, and mass spectrometry. […]

[2] = system: Hsp70i, Hsc70, Grp78, Grp75, Hsp90; experiment: as above; type: binding; conditions: Western blot
Experimental: as §1, §2

caspase-3/7 = experiment: Caspase 3/7 assay in cancer cells; type: cell-based
Experimental: Caspase 3/7 Assay: The Amplite™ Fluorimetric Caspase3/7 assay kit (AAT Bioquest, Sunnyvale, Calif.) was used per the manufacturer's instructions. Briefly, a fluorometric indicator, Ac-DEVD-AMC, was used to determine caspase activity. […] Cells were seeded at 60,000 cells/well in a 96 well plate and treated with compound for the indicated period of time. Diluted caspase 3/7 assay solution was added to each well and incubated at room temperature for 2 hours protected from light, upon which time fluorescence was measured on the Victor X2 plate reader (Perkin Elmer, Waltham, Mass.).

NF639 = experiment: Cell proliferation, NF639; type: cell-based, mouse
Experimental: Cell Proliferation: Cell proliferation was determined using a Hoechst stain (Sigma, St. Louis, Mo.) to quantify DNA. 5,000 cells of the designated cell line were plated in 96 well plates and treated the next day, designated as time point 0, with the indicated concentration of the specified compound maintained for the duration of the assay. At the indicated time points the media was removed and plated frozen at −80° C. Double distilled H2O was then added and the plates were incubated at 37° C. for 1 hour. After 1 hour the plates were frozen at −80° C. After freezing the plates were thawed and Hoechst stain was diluted 1:1000 in THE buffer (10 mM Tris, 2M NaCl, 1 mM Na2EDTA). The final fluorescence was measured on the Victor X2 plate reader at 355/460 nm, and cell proliferation was determined with the formula: % Cell Proliferation=100×(Sample fluorescence−background fluorescence)/(Control fluorescence−background fluorescence).

HS-72 in vivo MTD = conditions: wild-type mice, IP biweekly for 35 days, up to 30 mg/kg
Experimental: (§3) HS-72 in vivo MTD and blood workup: The 5 cohorts consisted of 3 mice each given HS-72 BiW and administered IP in DMSO at 1, 5, 10, 20 and 30 mpk using female FVBs aged to 10 weeks. Body Mass was measured weekly and the mice were monitored for signs of toxicity as per MP1U standard protocol. For blood analysis, 4 mice were injected IP with HS-72 on day 1 and 4, with blood drawn on day 5. 4 mice receiving no treatment were used as controls.

[3] = Blood workup after HS-72 treatment; type: in vivo; conditions: wild-type mice, compared to control mice
Experimental: as §3

MMTV-neu mice = experiment: HS-72 in vivo efficacy study; design: species or system mouse; conditions: for tumor volume vs. no treatment: at 21 days, p<0.05
Experimental: HS-72 in vivo Efficacy Studies: MMTV-neu mice, a HER2 overexpression breast cancer mouse model in which HER2 is under the transcriptional control of the mouse mammary tumor virus promoter/enhancer, were treated with the indicated doses and dosing schedule [Taneja et al., 2009]. All doses were delivered through IP injections using DMSO and their tumors were calipered once weekly. The mice were culled upon reaching tumor burden or if they expressed signs of toxicity as per MP1U standard protocol.

Hsp70i = Hsp70i (Homo sapiens, UniProt P0DMV8); experiment: HS-72 affinity resin pull-down from HEK293T lysate, Hsp70i; type: binding; design: endogenous in cells; host or cells: HEK 293T; conditions: free HS-72 incubated with lysate
Experimental: HS-72 specifically targets Hsp70i over other members of the Hsp70 superfamily. To test the selectivity of the HS-72 scaffold against the broader purinome, HEK 293T cell extracts or pig bladder tissue lysates were applied to the ATP resin and eluted with HS-72, as described for FLECS. The eluates were characterized by SDS-PAGE, silver stain, and MS analysis. […] To more thoroughly determine the specificity of HS-72 for Hsp70i, the HEK 293T eluates were also analyzed for other Hsp70 family members Hsc70, Grp78, and Grp75, as well as Hsp90 by Western blot. […] Next, an affinity resin was synthesized using the HS-72 scaffold, similar to a previously described affinity resin targeting Hsp90 [Hughes et al. (2012). […] Bioorganic & medicinal chemistry 20, 3298-3305]. HEK 293T cell lysate was applied to the resin and subjected to several washes. To confirm selectivity of the HS-72 affinity resin for Hsp70i, free HS-72 was incubated with lysate to inhibit Hsp70i binding to the affinity resin. The linker on the resin was cleaved using sodium dithionite and the samples were subjected to SDS-PAGE and analyzed by Western blot, silver stain, and mass spectrometry. […] These studies identified HS-72 as the first example of a small molecule that can selectively discriminate Hsp70i from other members of the Hsp70 superfamily.

Hsp70i, sequence (P0DMV8 whole entry): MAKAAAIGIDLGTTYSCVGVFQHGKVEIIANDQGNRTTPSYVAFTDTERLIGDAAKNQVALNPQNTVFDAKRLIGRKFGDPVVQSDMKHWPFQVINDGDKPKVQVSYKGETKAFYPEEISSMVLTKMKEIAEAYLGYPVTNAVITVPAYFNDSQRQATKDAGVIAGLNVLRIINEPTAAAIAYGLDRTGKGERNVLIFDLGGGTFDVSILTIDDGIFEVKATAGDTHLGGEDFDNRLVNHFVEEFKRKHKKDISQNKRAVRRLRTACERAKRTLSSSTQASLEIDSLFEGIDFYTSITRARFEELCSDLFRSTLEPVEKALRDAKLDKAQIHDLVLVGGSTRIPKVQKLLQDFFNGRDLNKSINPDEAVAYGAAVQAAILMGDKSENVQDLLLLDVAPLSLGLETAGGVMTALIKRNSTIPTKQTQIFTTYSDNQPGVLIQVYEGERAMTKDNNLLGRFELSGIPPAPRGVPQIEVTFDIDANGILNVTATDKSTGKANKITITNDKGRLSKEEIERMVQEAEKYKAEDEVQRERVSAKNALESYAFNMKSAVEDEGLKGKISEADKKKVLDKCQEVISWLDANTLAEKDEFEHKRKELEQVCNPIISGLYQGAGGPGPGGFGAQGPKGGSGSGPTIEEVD
T1 sequence (P0DMV8 2-641): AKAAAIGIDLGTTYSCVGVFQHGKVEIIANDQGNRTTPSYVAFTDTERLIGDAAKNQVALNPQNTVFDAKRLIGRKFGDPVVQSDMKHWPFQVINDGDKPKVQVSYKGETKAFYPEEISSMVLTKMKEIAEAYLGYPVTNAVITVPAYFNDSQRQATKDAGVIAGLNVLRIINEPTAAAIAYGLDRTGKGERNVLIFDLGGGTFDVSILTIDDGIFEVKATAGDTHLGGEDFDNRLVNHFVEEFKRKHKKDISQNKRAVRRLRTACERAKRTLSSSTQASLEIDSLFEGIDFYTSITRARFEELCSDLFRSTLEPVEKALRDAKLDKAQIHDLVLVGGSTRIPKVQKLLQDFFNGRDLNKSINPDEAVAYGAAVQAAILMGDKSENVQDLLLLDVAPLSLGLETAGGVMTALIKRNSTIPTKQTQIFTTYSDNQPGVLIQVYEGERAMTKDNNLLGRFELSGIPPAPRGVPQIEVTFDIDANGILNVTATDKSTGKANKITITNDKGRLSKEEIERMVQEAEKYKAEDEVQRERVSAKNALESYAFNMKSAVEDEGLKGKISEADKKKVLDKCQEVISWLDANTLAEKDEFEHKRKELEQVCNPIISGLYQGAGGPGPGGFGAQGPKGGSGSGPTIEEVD

Question: For CCCn1c(NC(=O)[C@H]2CCCN(c3cnccn3)C2)nc2ccccc21 [HS-72, (S)—N-(1-propyl-1H-benzo[d]imidazol-2-yl)-1-(pyrazin-2-yl)piperidine-3-carboxamide], which “elution of Hsp70 from ATP resin” value [1] is on record?
Answer: elutes Hsp70

Question: What about the “Hsp70 family members and Hsp90 eluted from the ATP resin” value [2] of the same compound?
Answer: only inducible Hsp70 was eluted

Question: What about the caspase activation (caspase-3/7; 6 hours and 24 hours, dose dependent) of the same compound?
Answer: reproducible across several cancer cell lines

Question: What about the caspase activation (caspase-3/7; various cancer cells) of the same compound?
Answer: inducing caspase activation in a dose dependent manner

Question: What about the “cell proliferation, combination with HS-10” value (NF639) of the same compound?
Answer: synergistic inhibition

Question: And the cell proliferation (NF639; 25 uM and 50 uM at 24, 48, and 72 hours)?
Answer: inhibits proliferation

Question: What about the “tolerability in dose escalation” value (HS-72 in vivo MTD) of the same compound?
Answer: no adverse events, reduction in body weight, or altered behavior

Question: What about the complete blood count [3] of the same compound?
Answer: no effect on complete blood count

Question: And the kidney function [3]?
Answer: no effect on kidney function

Question: What about the liver function [3] of the same compound?
Answer: no effect on liver function

Question: And the “increase of median survival vs. no treatment” value (MMTV-neu mice; I.P. 20 mpk BiW)?
Answer: 6 days

Question: What about the “tumor volume vs. no treatment” value (MMTV-neu mice; I.P. 20 mpk BiW, 20 mg/kg) of the same compound?
Answer: significant reduction

Question: What about the “tumor volume vs. no treatment” value (MMTV-neu mice; I.P. 20 mpk BiW, listed as HS72, 20 mg/kg) of the same compound?
Answer: significant decrease

Question: And the “increase of median survival vs. no treatment” value (MMTV-neu mice; I.P. 20 mpk qd)?
Answer: 13 days

Question: And the “competition of Hsp70i binding to the affinity resin by free compound” value (Hsp70i)?
Answer: able to block this interaction

Source: patent publication US10000469B2, “Heat shock protein 70 (hsp-70) receptor ligands” (Duke University, priority 2014, dated 2018)
